This data set is described as follows: Plasma pharmacokinetics of telaglenastat. The class given is in vivo, human.

Broadly, the half-life is the time needed for the level to fall by half in the phase considered. As a reminder, the AUC is concentration integrated over time. Low values mean low exposure, high ones high exposure. As a reminder, the AUC(0-t) is exposure summed from dosing to a finite time, without extrapolation to infinity. Low values mean low exposure, high ones high exposure. By Cmax is commonly meant the maximum level reached in the sampled fluid or tissue. What is called Tmax is the time from dosing to the highest level.

Consider `O=C(Cc1cccc(OC(F)(F)F)c1)Nc1ccc(CCCCc2nnc(NC(=O)Cc3ccccn3)s2)nn1` [telaglenastat, Telaglenastat], for which the Cmin (RCC patient with PR (800 mg BID)) is recorded as 1,490 ng/mL. Further, the half-life (human, in vivo, 600 mg) is 3.73 h. Moreover, the AUC (human, in vivo, 800 mg) came out at 19900 ng·h/mL. Besides, under “human, in vivo, 800 mg, AUC0–8h, steady state C1D15, 800 mg BID-fed (n = 10), mean (CV%)”, the AUC(0-t) amounted to 9660 ng·h/mL. For the same compound, the Cmax runs as follows: (human, in vivo, 800 mg, C max, steady state C1D15, 800 mg BID-fed (n = 10), mean (CV%)) 1770 ng/mL; (human, in vivo, 800 mg, Cmax, RCC patient with PR (800 mg BID)) 2960 ng/mL. Also, the concentration at 15 day of cycle 1 (human, in vivo, 800 mg, C min, steady state C1D15, 800 mg BID-fed (n = 10), median (range)) was found to be 443 ng/mL. Also, the Tmax (human, in vivo, 800 mg, t max, steady state C1D15, 800 mg BID-fed (n = 10), (range)) is 4 h. For the same compound, the C min (steady state C1D15, 1,000 mg BID-fed (n = 4), median (range)) is given as 147 (73.2–221) ng/mL.

For the origin of these results see PMC9401498 (Clinical Cancer Research, 2021).
